Measured values taken from DBAASP.
In brackets after ≈: the same amount, converted by molar mass. One block for each compound: values may come before it.

How the values were obtained:
Assay in all cases: ≥ marks a high value that may be exact or a test limit, other limits are often not marked, values filed in µg/mL are converted to µM
[1] = tested on: Bacillus subtilis DSM 347
Escherichia coli BL21AI = tested on: Escherichia coli BL21AI
[2] = tested on: Escherichia coli DSM 10233
[3] = tested on: Micrococcus luteus ATCC 10240
[4] = tested on: Micrococcus luteus DSM 1790
Bacillus subtilis PS832 = tested on: Bacillus subtilis PS832
Escherichia coli DL7 = tested on: Escherichia coli DL7
[5] = tested on: Klebsiella aerogenes ATCC 13048
[6] = tested on: Staphylococcus epidermidis ATCC 12228
[7] = tested on: Escherichia coli ATCC 25922
[8] = tested on: Staphylococcus aureus MRSA-16
[9] = tested on: Staphylococcus aureus MRSA-G
[10] = tested on: Staphylococcus aureus BCRC 10780
[11] = tested on: Staphylococcus sp. BCRC 10451
Streptococcus agalactiae = tested on: Streptococcus agalactiae
Vibrio alginolyticus = tested on: Vibrio alginolyticus
[12] = tested on: Vibrio harveyi BCRC 13812
[13] = tested on: Staphylococcus aureus ATCC 25023
[14] = tested on: Acinetobacter baumannii CICC 22934
Bacillus cereus AS1.126 = tested on: Bacillus cereus AS1.126
[15] = tested on: Enterobacter cloacae CGMCC 1.58
[16] = tested on: Enterococcus faecalis CGMCC 1.595
[17] = tested on: Enterococcus faecium CGMCC 1.2334
Escherichia coli AS1.349 = tested on: Escherichia coli AS1.349
[18] = tested on: Klebsiella aerogenes CGMCC 1.876
[19] = tested on: Klebsiella pneumoniae subsp. pneumoniae CGMCC 1.176
[20] = tested on: Lactococcus lactis AS1.1690
[21] = tested on: Proteus mirabilis CICC 22931
[22] = tested on: Pseudomonas aeruginosa CGMCC 1.860
[23] = tested on: Staphylococcus aureus AS1.72
[24] = tested on: Enterococcus faecalis ATCC 29212
Enterococcus faecium = tested on: Enterococcus faecium
[25] = tested on: Staphylococcus aureus ATCC 25923
[26] = tested on: Staphylococcus aureus K35
[27] = tested on: Staphylococcus aureus K52
[28] = tested on: Pseudomonas aeruginosa ATCC 10419
[29] = tested on: Pseudomonas aeruginosa ATCC 21625
[30] = tested on: Pseudomonas aeruginosa ATCC 21630
[31] = tested on: Pseudomonas aeruginosa ATCC 27853
[32] = tested on: Pseudomonas aeruginosa LCCE
[33] = tested on: Pseudomonas aeruginosa LCCI
[34] = tested on: Pseudomonas aeruginosa LCGE
[35] = tested on: Pseudomonas aeruginosa LC
[36] = tested on: Salmonella enterica subsp. enterica serovar Typhimurium C77-31
[37] = tested on: Staphylococcus aureus ATCC 29213

MIC [1]: ≥ 55.9 µM
MIC (Escherichia coli BL21AI): 28.6 µM (≈ 64 µg/mL)
MIC [2]: ≥ 55.9 µM
MIC [3]: ≥ 57.3 µM
MIC [4]: 6.98 µM (≈ 15.6 µg/mL)
Compound: CC[C@H](C)[C@H](NC(=O)[C@H](CCCN=C(N)N)NC(=O)[C@H](CCCN=C(N)N)NC(=O)[C@@H]1CCCN1C(=O)[C@@H]1CCCN1C(=O)[C@H](CCCN=C(N)N)NC(=O)[C@@H]1CCCN1C(=O)[C@H](CCCN=C(N)N)NC(=O)[C@@H]1CCCN1C(=O)[C@H](CC(C)C)NC(=O)[C@H](Cc1ccc(O)cc1)NC(=O)[C@@H]1CCCN1C(=O)[C@@H]1CCCN1C(=O)[C@H](CCCCN)NC(=O)[C@H](CC(=O)O)NC(=O)[C@@H](N)C(C)C)C(=O)N[C@@H](Cc1ccc(O)cc1)C(=O)N[C@@H](CC(N)=O)C(=O)O [VDKPPYLPRPRPPRRIYN]

MIC (Bacillus subtilis PS832): 2 µM (≈ 4.65 µg/mL)
MIC (Escherichia coli DL7): 16 µM (≈ 37.2 µg/mL)
MIC [5]: ≥ 32 µM
MIC [6]: 4 µM (≈ 9.3 µg/mL)
Compound: CC(C)C[C@H](NC(=O)CNC(=O)[C@H](C)NC(=O)[C@H](CCCN=C(N)N)NC(=O)[C@H](Cc1cnc[nH]1)NC(=O)[C@H](C)NC(=O)[C@@H](N)CC(=O)O)C(=O)N[C@@H](CCC(N)=O)C(=O)N[C@@H](Cc1ccccc1)C(=O)N1CCC[C@H]1C(=O)N[C@H](C(=O)NCC(=O)N[C@@H](CCCN=C(N)N)C(=O)N[C@H](C(=O)N[C@@H](Cc1cnc[nH]1)C(=O)N[C@@H](CCCN=C(N)N)C(=O)N[C@@H](CC(C)C)C(=O)N[C@@H](CC(C)C)C(=O)N[C@@H](CCCN=C(N)N)C(=O)N[C@@H](CCCCN)C(N)=O)C(C)C)C(C)C [DAHRAGLQFPVGRVHRLLRK]

MIC [7]: 1 µM (≈ 2.43 µg/mL)
MIC [8]: ≥ 32 µM
MIC [9]: ≥ 32 µM
Compound: CC[C@H](C)[C@H](NC(=O)[C@H](C)NC(=O)[C@H](CCCCN)NC(=O)[C@@H](NC(=O)CNC(=O)CNC(=O)[C@H](Cc1c[nH]c2ccccc12)NC(=O)[C@H](Cc1ccccc1)NC(=O)[C@H](CCCCN)NC(=O)[C@H](CCCCN)NC(=O)[C@H](Cc1ccccc1)NC(=O)[C@@H](N)CO)C(C)C)C(=O)N[C@@H](Cc1ccccc1)C(=O)N[C@@H](CCCCN)C(=O)NCC(=O)N[C@@H](C)C(=O)N[C@@H](CCCN=C(N)N)C(=O)N[C@@H](CCCCN)C(=O)NCC(=O)N[C@@H](Cc1c[nH]c2ccccc12)C(=O)N[C@@H](CCCCN)C(=O)O [SFKKFWGGVKAIFKGARKGWK]

MIC [10]: 4.56 µM (≈ 6.44 µg/mL)
MIC [11]: ≥ 72.9 µM
MIC (Streptococcus agalactiae): ≥ 72.9 µM
MIC (Vibrio alginolyticus): 4.56 µM (≈ 6.44 µg/mL)
MIC [12]: 4.56 µM (≈ 6.44 µg/mL)
Compound: CC[C@H](C)[C@H](NC(=O)[C@H](Cc1ccccc1)NC(C)=O)C(=O)N[C@@H](Cc1ccccc1)C(=O)N[C@@H](Cc1cnc[nH]1)C(=O)N[C@H](C(=O)N[C@H](C(=O)N[C@@H](CCCCN)C(=O)NCC(=O)N[C@@H](CC(C)C)C(=O)N[C@@H](Cc1ccccc1)C(=O)N[C@@H](Cc1cnc[nH]1)C(N)=O)[C@@H](C)CC)[C@@H](C)CC [FIFHIIKGLFH]

MIC [13]: 14.1 µM (≈ 16 µg/mL)
Compound: CC(C)C[C@H](NC(=O)[C@H](CCCN=C(N)N)NC(=O)[C@H](CC(C)C)NC(=O)[C@H](CC(C)C)NC(=O)[C@H](CC(C)C)NC(=O)[C@H](CC(C)C)NC(=O)[C@H](CCCCN)NC(=O)[C@H](CC(C)C)NC(=O)[C@@H](N)CCCN=C(N)N)C(N)=O [RLKLLLLRL]

MIC [14]: ≥ 100 µM
MIC (Bacillus cereus AS1.126): 1.56 µM (≈ 3.63 µg/mL)
MIC [15]: ≥ 100 µM
MIC [16]: 3.13 µM (≈ 7.27 µg/mL)
MIC [17]: 3.13 µM (≈ 7.27 µg/mL)
MIC (Escherichia coli AS1.349): ≥ 100 µM
MIC [18]: ≥ 100 µM
MIC [19]: ≥ 100 µM
MIC [20]: 4.69 µM (≈ 10.9 µg/mL)
MIC [21]: ≥ 100 µM
MIC [22]: ≥ 100 µM
MIC [23]: 1.56 µM (≈ 3.63 µg/mL)
Compound: CC(C)C[C@H](NC(=O)[C@H](CC(C)C)NC(=O)[C@H](Cc1ccccc1)NC(=O)[C@H](CCCN=C(N)N)NC(=O)[C@H](CCCN=C(N)N)NC(=O)[C@H](CC(C)C)NC(=O)[C@H](Cc1cnc[nH]1)NC(=O)[C@H](CCCN=C(N)N)NC(=O)[C@H](CC(C)C)NC(=O)[C@@H](NC(=O)[C@H](C)NC(=O)[C@@H](N)CO)C(C)C)C(=O)N[C@@H](CCCN=C(N)N)C(=O)N[C@@H](CCCCN)C(=O)N[C@@H](Cc1cnc[nH]1)C(=O)N[C@@H](CCCN=C(N)N)C(=O)N[C@@H](CCCCN)C(=O)N[C@@H](Cc1cnc[nH]1)C(=O)O [SAVLRHLRRFLLRKHRKH]

MIC [24]: > 168 µM
MIC (Enterococcus faecium): ≥ 116 µM
MIC [25]: 83.7 µM (≈ 115 µg/mL)
MIC [26]: ≥ 58.2 µM
MIC [27]: ≥ 58.2 µM
Compound: CC[C@H](C)[C@H](NC(=O)CNC(=O)[C@H](CO)NC(=O)[C@H](CC(C)C)NC(=O)[C@@H](NC(=O)[C@H](CCCN=C(N)N)NC(=O)CNC(=O)[C@@H](NC(=O)[C@H](CC(C)C)NC(=O)[C@@H]1CCCN1C(=O)[C@H](CC(C)C)NC(=O)[C@@H](N)CCCCN)[C@@H](C)CC)C(C)C)C(=O)N[C@@H](CC(C)C)C(N)=O [KLPLIGRVLSGIL]

MIC [7]: 128 µM (≈ 283 µg/mL)
MIC [28]: ≥ 256 µM
MIC [29]: ≥ 256 µM
MIC [30]: ≥ 256 µM
MIC [31]: 128 µM (≈ 283 µg/mL)
MIC [32]: ≥ 256 µM
MIC [33]: ≥ 256 µM
MIC [34]: ≥ 256 µM
MIC [35]: ≥ 256 µM
MIC [36]: ≥ 256 µM
MIC [37]: 128 µM (≈ 283 µg/mL)
MIC [6]: 128 µM (≈ 283 µg/mL)
Compound: CC[C@H](C)[C@H](NC(=O)[C@H](CCCCN)NC(=O)[C@H](CCCCN)NC(=O)[C@H](CC(C)C)NC(=O)[C@H](CCCN=C(N)N)NC(=O)[C@H](CCCCN)NC(=O)[C@H](CCCN=C(N)N)NC(=O)[C@H](CCCCN)NC(=O)[C@H](CCCCN)NC(=O)[C@H](CCCCN)NC(=O)[C@H](CCCN=C(N)N)NC(=O)[C@H](CC(C)C)NC(=O)[C@H](CCCN=C(N)N)NC(=O)[C@H](CCCN=C(N)N)NC(=O)[C@H](Cc1ccccc1)NC(=O)[C@@H](N)CCCN=C(N)N)C(N)=O [RFRRLRKKKRKRLKKI]
